{"source": "paper PMC7794376", "about": "(Nature Communications, 2021)", "type_in_all_cases": "biochemical", "key": {"[1]": {"biological_target": "T1, MtbCoaBC (Mycobacterium tuberculosis, UniProt P9WNZ1)", "T1 sequence (P9WNZ1 whole entry)": "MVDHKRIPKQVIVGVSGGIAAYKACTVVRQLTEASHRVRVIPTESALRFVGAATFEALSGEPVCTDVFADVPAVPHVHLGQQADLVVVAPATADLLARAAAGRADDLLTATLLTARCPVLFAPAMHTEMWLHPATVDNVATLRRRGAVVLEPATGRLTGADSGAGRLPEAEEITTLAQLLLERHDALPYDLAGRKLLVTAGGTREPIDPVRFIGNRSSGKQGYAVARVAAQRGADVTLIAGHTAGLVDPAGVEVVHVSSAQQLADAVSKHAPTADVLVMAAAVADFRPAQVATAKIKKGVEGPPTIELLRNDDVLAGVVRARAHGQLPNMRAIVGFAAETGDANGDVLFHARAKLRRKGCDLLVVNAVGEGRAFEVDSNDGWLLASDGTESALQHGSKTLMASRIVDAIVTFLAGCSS", "test": "High-throughput end-point pyrophosphate quantification assay (Biomol Green)"}, "[2]": {"biological_target": "T1, MtbCoaBC", "test": "Competition assays, first half of CoaB reaction (EnzChek, variable CTP or PPA)", "conditions": "for mode of inhibition: in words"}, "[3]": {"biological_target": "T1, MtbCoaBC", "test": "biochemical", "conditions": "for Activity %: relative to average CT; for Activity % / Inhibition % / Activity: replicates R1-R3; for Activity: slope of absorbance at 360 nm vs time (s); for inhibition, replicates / reaction rate (slope of absorbance at 360 nm over time), replicates: IC50 MtbCoaBC AcCoA"}, "[4]": {"biological_target": "T1, MtbCoaBC", "test": "CMP quantification assay (UPLC), second half of CoaB reaction, variable L-cysteine", "conditions": "for CMP formation rate, uM CMP/uM protein.s-1: MtbCoaBC 32nM, replicates R1-R3"}, "[5]": {"conditions": "AcCoA concentration 512 (log 2.70927)"}, "[6]": {"conditions": "AcCoA concentration 1024 (log 3.0103)"}}, "note": "“And” between values parts separate entries of the source, which are not always exact repeats. Equal values may be shown once.", "data": [{"smiles": "O=c1cc(-c2ccccc2)oc2cc(O)c(O)c(O)c12", "note": "[2a]", "values": [{"measurement": "IC50", "setting": "[1]", "result": 3.1, "unit": "µM"}]}, {"smiles": "CC(=O)SCCNC(=O)CCNC(=O)[C@H](O)C(C)(C)COP(=O)(O)OP(=O)(O)OC[C@H]1O[C@@H](n2cnc3c(N)ncnc32)[C@H](O)[C@@H]1OP(=O)(O)O", "note": "[AcCoA, acetyl-CoA]", "values": [{"measurement": "mode of inhibition", "setting": "[2]; relative to CTP", "result": "competitive"}, {"measurement": "mode of inhibition", "setting": "[2]; relative to PPA", "result": "competitive"}, {"measurement": "Inibition type", "setting": "[2]; variable substrate CTP", "result": "C (C competitive inhibition)"}, {"measurement": "Ki", "setting": "[2]; variable substrate CTP", "result": "22.5 ± 1.7", "unit": "µM"}, {"measurement": "Inibition type", "setting": "[2]; variable substrate PPA", "result": "C (C competitive inhibition)"}, {"measurement": "Ki", "setting": "[2]; variable substrate PPA", "result": "22.4 ± 1.4", "unit": "µM"}, {"measurement": "Activity %", "setting": "[3]; 8 uM AcCoA", "result": "102.2% and 99.12% and 97.26%"}, {"measurement": "Inhibition %", "setting": "[3]; 8 uM AcCoA", "result": "0.88% and 2.74% and -2.21%"}, {"measurement": "Activity", "setting": "[3]; 8 uM AcCoA", "result": "0.0001687 and 0.0001636 and 0.0001606"}, {"measurement": "Activity %", "setting": "[3]; 16 uM AcCoA", "result": "97.8% and 95.95%"}, {"measurement": "Inhibition %", "setting": "[3]; 16 uM AcCoA", "result": "2.20% and 4.05%"}, {"measurement": "Activity", "setting": "[3]; 16 uM AcCoA", "result": "0.0001621 and 0.0001615 and 0.0001584"}, {"measurement": "Activity %", "setting": "[3]; 32 uM AcCoA", "result": "83.56% and 84.79% and 80.02%"}, {"measurement": "Inhibition %", "setting": "[3]; 32 uM AcCoA", "result": "15.21% and 19.98% and 16.44%"}, {"measurement": "Activity", "setting": "[3]; 32 uM AcCoA", "result": "0.0001379 and 0.00014 and 0.0001321"}, {"measurement": "Activity %", "setting": "[3]; 64 uM AcCoA", "result": "72.03% and 75.67% and 69.98%"}, {"measurement": "Inhibition %", "setting": "[3]; 64 uM AcCoA", "result": "24.33% and 30.02% and 27.97%"}, {"measurement": "Activity", "setting": "[3]; 64 uM AcCoA", "result": "0.0001189 and 0.0001249 and 0.0001155"}, {"measurement": "Activity %", "setting": "[3]; 128 uM AcCoA", "result": "46.95% and 48.75% and 44.16%"}, {"measurement": "Inhibition %", "setting": "[3]; 128 uM AcCoA", "result": "51.25% and 55.84% and 53.05%"}, {"measurement": "Activity", "setting": "[3]; 128 uM AcCoA", "result": "0.000077520 and 0.000080489 and 0.000072900"}, {"measurement": "Activity %", "setting": "[3]; 256 uM AcCoA", "result": "25.68% and 25.48% and 26.76%"}, {"measurement": "Inhibition %", "setting": "[3]; 256 uM AcCoA", "result": "74.52% and 73.24% and 74.32%"}, {"measurement": "Activity", "setting": "[3]; 256 uM AcCoA", "result": "0.000042403 and 0.000042072 and 0.000044186"}, {"measurement": "IC50", "setting": "[3]; CoaB activity, […] CTP, […] PPA, 500 µM L-cysteine, average of three independent experiments ± SD, read-out: IC50 EnzChek MtbCoaBC", "result": "121 ± 9", "unit": "µM"}, {"measurement": "inhibition, replicates", "setting": "[3]; [5]", "result": "81.65 and 87.30 and 84.02"}, {"measurement": "reaction rate (slope of absorbance at 360 nm over time), replicates", "setting": "[3]; [5]", "result": "0.000026380 and 0.000030299 and 0.000020964"}, {"measurement": "inhibition, replicates", "setting": "[3]; [6]", "result": "99.03 and 98.19 and 97.42"}, {"measurement": "reaction rate (slope of absorbance at 360 nm over time), replicates", "setting": "[3]; [6]", "result": "0.000004262 and 0.000001602 and 0.000002982"}, {"measurement": "CMP formation rate, uM CMP/uM protein.s-1", "setting": "[4]; 32uM AcCoA, 31.25 uM cysteine", "result": "0.1004 uM CMP/uM protein.s-1 and 0.1195 uM CMP/uM protein.s-1 and 0.1103 uM CMP/uM protein.s-1"}, {"measurement": "CMP formation rate, uM CMP/uM protein.s-1", "setting": "[4]; 32uM AcCoA, 62.5 uM cysteine", "result": "0.1434 uM CMP/uM protein.s-1 and 0.1547 uM CMP/uM protein.s-1 and 0.1394 uM CMP/uM protein.s-1"}, {"measurement": "CMP formation rate, uM CMP/uM protein.s-1", "setting": "[4]; 32uM AcCoA, 250 uM cysteine", "result": "0.2114 uM CMP/uM protein.s-1 and 0.2235 uM CMP/uM protein.s-1 and 0.2345 uM CMP/uM protein.s-1"}, {"measurement": "CMP formation rate, uM CMP/uM protein.s-1", "setting": "[4]; 32uM AcCoA, 500 uM cysteine", "result": "0.2276 uM CMP/uM protein.s-1 and 0.2314 uM CMP/uM protein.s-1 and 0.2458 uM CMP/uM protein.s-1"}, {"measurement": "CMP formation rate, uM CMP/uM protein.s-1", "setting": "[4]; 64uM AcCoA, 31.25 uM cysteine", "result": "0.08802 uM CMP/uM protein.s-1 and 0.06801 uM CMP/uM protein.s-1 and 0.07425 uM CMP/uM protein.s-1"}, {"measurement": "CMP formation rate, uM CMP/uM protein.s-1", "setting": "[4]; 64uM AcCoA, 62.5 uM cysteine", "result": "0.1006 uM CMP/uM protein.s-1 and 0.1253 uM CMP/uM protein.s-1 and 0.1155 uM CMP/uM protein.s-1"}, {"measurement": "CMP formation rate, uM CMP/uM protein.s-1", "setting": "[4]; 64uM AcCoA, 250 uM cysteine", "result": "0.1479 uM CMP/uM protein.s-1 and 0.156 uM CMP/uM protein.s-1 and 0.1565 uM CMP/uM protein.s-1"}, {"measurement": "CMP formation rate, uM CMP/uM protein.s-1", "setting": "[4]; 64uM AcCoA, 500 uM cysteine", "result": "0.1756 uM CMP/uM protein.s-1 and 0.1564 uM CMP/uM protein.s-1 and 0.1555 uM CMP/uM protein.s-1"}, {"measurement": "CMP formation rate, uM CMP/uM protein.s-1", "setting": "[4]; 128uM AcCoA, 31.25 uM cysteine", "result": "0.04605 uM CMP/uM protein.s-1 and 0.05632 uM CMP/uM protein.s-1 and 0.0514 uM CMP/uM protein.s-1"}, {"measurement": "CMP formation rate, uM CMP/uM protein.s-1", "setting": "[4]; 128uM AcCoA, 62.5 uM cysteine", "result": "0.06616 uM CMP/uM protein.s-1 and 0.09648 uM CMP/uM protein.s-1 and 0.09325 uM CMP/uM protein.s-1"}, {"measurement": "CMP formation rate, uM CMP/uM protein.s-1", "setting": "[4]; 128uM AcCoA, 250 uM cysteine", "result": "0.09625 uM CMP/uM protein.s-1 and 0.1011 uM CMP/uM protein.s-1 and 0.1018 uM CMP/uM protein.s-1"}, {"measurement": "CMP formation rate, uM CMP/uM protein.s-1", "setting": "[4]; 128uM AcCoA, 500 uM cysteine", "result": "0.1011 uM CMP/uM protein.s-1 and 0.1154 uM CMP/uM protein.s-1 and 0.1123 uM CMP/uM protein.s-1"}, {"measurement": "mode of inhibition", "setting": "[4]; relative to L-cysteine, in words", "result": "non-competitive inhibition"}, {"measurement": "Ki", "setting": "[4]; variable substrate L-cysteine", "result": "62.1 ± 2", "unit": "µM"}]}, {"smiles": "O=C(c1ccccc1)c1ccc(O)c(O)c1O", "note": "[compound 1a]", "values": [{"measurement": "IC50", "setting": "[1]; MtbCoaB activity, end-point, 2 µM CTP, 40 µM L-cysteine, 30 µM PPA, read-out: IC50 biomol green assay", "result": 9, "unit": "µM"}]}]}
